We go through two compounds from patent US20040014191A1, “Nitroreductase enzymes” (priority 1999, published 2004).

Read-outs that look alike come from different tables or passages of the source.

Series [1] relates to Cc1cc2nc3c(=O)[nH]c(=O)nc-3n(C[C@H](O)[C@H](O)[C@H](O)COP(=O)(O)OP(=O)(O)OC[C@H]3O[C@@H](n4cnc5c(N)ncnc54)[C@H](O)[C@@H]3O)c2cc1C. Description: purified protein, by the assay type. As to conditions: other: flavin substrates, cofactor not given; pH 7.0; 37.0 °C.
The test system of series [2] is CC1=CC(=O)c2ccccc2C1=O. The series is described as follows: purified protein, by the assay type. The note with it: other: 1 mM NADPH; pH 7.0; 37.0 °C.
Series [3] has as its system Cc1cc2nc3c(=O)[nH]c(=O)nc-3n(C[C@H](O)[C@H](O)[C@H](O)COP(=O)(O)O)c2cc1C. Description: purified protein, by the assay type. The note with it: other: flavin substrates, cofactor not given; pH 7.0; 37.0 °C.
Series [4] addresses H. influenzae NfnB (Haemophilus influenzae, UniProt Q57431).
Series [5] concerns the target C. jejuni NfnB (Campylobacter jejuni, UniProt Q0P9I8). As to conditions: 1 mM NADPH.
Series [6] relates to Pae3. Description: Kinetic parameters for Pae3. The note with it: menadione as substrate, NADPH as cofactor. Format: biochemical, Pseudomonas aeruginosa. As to the method: […] […] Incubation times varied according to the enzyme activity being studied.
The protein encoded by Pae3 was overexpressed in E. coli and purified by anion exchange chromatography.

In series [7] the target is YodC (Bacillus subtilis, UniProt P81102). The series is described as follows: Substrate and cofactor specificity for YodC. As to the method: (§1) Quantitative assays using CB 1954 or SN 23862 as substrate were carried out at 37° C. by HPLC as previously described (2) (3). […] Incubation times varied according to the enzyme activity being studied.
Sequence of YodC (P81102 2-202): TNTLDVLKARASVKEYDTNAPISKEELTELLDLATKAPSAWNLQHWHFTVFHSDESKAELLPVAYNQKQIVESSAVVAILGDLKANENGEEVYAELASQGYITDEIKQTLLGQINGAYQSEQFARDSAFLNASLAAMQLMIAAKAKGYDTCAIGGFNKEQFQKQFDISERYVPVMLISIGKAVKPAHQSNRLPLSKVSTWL
Assays were carried out spectrophotometrically at 37° C. in 10 mM Tris pH 7.5 using cytochrome c as terminal electron acceptor.

In series [8] the test system is Efa 1. The series is described as follows: Kinetic parameters for Efa 1. Format: biochemical, Enterococcus faecalis. The text has this:
This gene is more highly related in sequence to ydgI compared to the other sequences used to search databases.

For series [9], the system named is Smu2. Description: Kinetic parameters for Smu2. In kind it is biochemical, Streptococcus mutans. As to conditions: substrates; NADPH preferred cofactor. As to the method: as §1

Sequence of H. influenzae NfnB (Q57431 whole entry): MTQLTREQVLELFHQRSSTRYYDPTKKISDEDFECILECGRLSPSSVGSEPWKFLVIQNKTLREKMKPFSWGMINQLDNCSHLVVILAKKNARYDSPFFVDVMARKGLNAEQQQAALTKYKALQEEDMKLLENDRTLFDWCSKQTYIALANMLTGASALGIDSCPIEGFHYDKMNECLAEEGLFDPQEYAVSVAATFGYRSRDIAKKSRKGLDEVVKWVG
Sequence of C. jejuni NfnB (Q0P9I8 entry or part of it): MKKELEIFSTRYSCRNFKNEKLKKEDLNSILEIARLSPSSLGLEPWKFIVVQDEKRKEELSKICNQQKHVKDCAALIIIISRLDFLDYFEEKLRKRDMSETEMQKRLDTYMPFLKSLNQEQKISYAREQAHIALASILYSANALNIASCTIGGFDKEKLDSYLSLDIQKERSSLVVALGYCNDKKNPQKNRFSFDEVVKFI

Take “C. jejuni NfnB (Campylobacter jejuni subsp. jejuni NCTC 11168 = ATCC 700819)”: the Km in series [1] is given as 3.3 ± 0.4 μM μM; in series [2], 1.3 ± 0.2 μM μM; in series [3] it was 0.7 ± 0.2 μM μM.

For the compound `CC1=CC(=O)c2ccccc2C1=O` [Menadione], the kcat came out at 24.1 in series [4] (1 mM NADH); 177.8 in [4] (1 mM NADPH); 66.1 s⁻¹ in [5]; 153.4 s⁻¹ in series [6]; 415.4 ± 14.8 s⁻¹ in series [7] (cofactor NADH); 329.5 ± 18.4 s⁻¹ in [7] (cofactor NADPH). For the same compound, the kcat in [8] (substrates, cofactor not given) turned out to be 264.8 s⁻¹; in series [9], 201.0 s⁻¹. Besides, the Km came to 3.8 µM in series [6]; 1 ± 0.1 µM in [7] (cofactor NADH, 37° C., 10 mM Tris pH 7.5); 1.6 ± 0.2 µM in series [7] (cofactor NADPH); 107 µM in [8] (substrates, cofactor not given); 2.7 µM in [9]. Also, the Ksi in series [6] and in series [8] was 18.0 µM each time.
